Experimental findings from US20240294570A1, “ENZYMATICALLY FORMING INTRANUCLEAR PEPTIDE ASSEMBLIES FOR SELECTIVELY KILLING INDUCED PLURIPOTENT STEM CELLS” (BRANDEIS UNIVERSITY, priority 2021, published 2024) are described below.

The nature of data set [1]: Enzymatic self-assembly in vitro, nanostructures by TEM. The data set is classed as physicochemical. Here is the method:
TEM Sample Preparation: After placing 5 μL samples on 400 mesh copper grids coated with continuous thick carbon film (˜35 nm) which is glowed discharged, we washed the grid with ddH2O and UA (uranyl acetate). The sample loaded grid was stained with the UA. The residual UA was removed by filter paper and then dried in air. TEM images were obtained with Morgagni 268 transmission electron microscope.
After obtaining all the precursors, their behaviors for EISA were evaluated in vitro using transmission electron microscopes (TEM) to examine the nanostructures formed before and after the ALP catalyzed dephosphorylation of precursors 5, 7, and 9. […] The critical micelle concentration (CMC) of 5 is 86.1 μM. […] The CMC of 6 is 8.1 μM. Unlike the case of 5, dephosphorylation of 7 or 9 at 400 μM by ALP (0.5 U/mL) produces nanofibers with the diameters of 6±2 nm or 9±2 nm, whose CMC is 87.4 μM or 25.8 μM, respectively.
A key requirement for selectively eliminating iPSCs by EISA is that the L-peptide nanoribbons only form on and in iPSCs, which overexpress ALP, but not on and in the differentiated cells that express normal level of ALP. That is, L-peptide nanoribbons should only rapidly form at high level of ALP, but not at normal level of ALP. […] Thus, after assessing the level of ALP expression in iPSCs, it should be possible to optimizing the initial concentration of a peptide and the time of dephosphorylation, to promote EISA that selectively targets iPSCs.

The subject of another data set is HS-5 cells. In words: Cytotoxicity against HS-5 cells (MTT assay). The data set is classed as cell-based, human. The note with it: 400 μM, 2 h. Here is the method: Cell Culture: Human induced pluripotent stem cell line A21 was generated from human normal dermal fibroblasts by using the StemRNA™-NM Reprogramming kit (Stemgent, Cat #00-0076). hiPSCs were routinely cultured and passaged on 6-well plates coated with 0.25 μg/cm^2 iMatrix-511 (Recombinant Laminin-511) (ReproCell) with NutriStem XF/FFTM medium (Biological Industries). HS-5 cell line and HEK293 cell line were purchased from American Type Culture Collection (ATCC, USA). HS-5 cells were cultured in Dulbecco's Modified Eagle Medium (DMEM) supplemented with 10% fetal bovine serum (FBS), 100 U/mL penicillin and 100 μg/mL streptomycin. HEK293 cells were cultured in Minimal Essential Medium (MEM) supplemented with 10% fetal bovine serum (FBS), 100 U/mL penicillin and 100 μg/mL streptomycin. All cells were maintained at 37° C. in a humidified atmosphere of 5% CO2.
Cell Viability of Differentiated Cells: Cytotoxicity against HS-5 cells and HEK293 cells was determined by using MTT assay. […] The absorbance of each well at 595 nm was measured by a DTX880 Multimode Detector. The results were calculated as cell viability percentage relative to untreated cells. […]

A further data set deals with iPSCs. In words: CLSM imaging of peptide assemblies in iPSCs. The data set is classed as cell-based, human. Here is the method:
Confocal Laser Scanning Microscopy (CLSM) Imaging: For live cell imaging, cells in exponential growth phase were seeded in a confocal dish (3.5 cm) at 1.0×10^5 cells per dish and then incubated in incubator for 24 h. We removed culture medium, and added fresh medium containing precursors for different time points. After removing the medium and washing the cells with live cell imaging solution (2 mL×2), the cells were used for CLSM imaging. For time-dependent live cell imaging, cells in exponential growth phase were seeded in a confocal dish (3.5 cm) at 1.0×10^5 cells per dish and then incubated in incubator for 24 h. After removing culture medium, we treated the cells with 1 mL of Hoechst 33342 (1 μg mL^−1) for 10 minutes. After being washed with culture medium (2 mL×2), the cells were incubated with fresh medium containing precursor 5 in a Tokai Hit stage top incubator (STXF-WSKMX-SET) to be used for CLSM imaging. All the CLSM images were obtained using Zeiss LSM 880 confocal microscopy at the lens of 63× with oil. The lasers used are 405 nm and 488 nm.
Because the fluorescence of NBD increases drastically from unassembled to assembled state, confocal laser scanning microscopy (CLSM) was suitable to reveal the cellular location of the peptide assemblies formed after dephosphorylation catalyzed by ALP. […] The blackness in nuclei overlaps well with the strong fluorescence. […] The results confirms that the nucleus-targeting mainly originates from the ALP catalyzed dephosphorylation.
To trace the dynamics of the formation and distribution of 5 inside iPSC cells, time-lapse CLSM was also used to image the changes of the fluorescence in the iPSCs incubated by 5 (400 μM). Using one cell as a representative case, after 6 minutes incubation fluorescent puncta appear on the membrane, likely originating from the aggregates of assemblies of 5 and those of 6 generated by the dephosphorylation catalyzed by ALP. […] After 24 minutes incubation, fluorescence starts to grow in the cytoplasm. Considering the LLLLY motif in SEQ ID NO: 2 constitutes the transmembrane domains of 18 human membrane proteins, it is possible that the affinity of 5 or 6 to membrane allows the assemblies of the mixture of 5 and 6 to interact with cellular membranes, which then facilitates nuclear localization. At about 28 minutes of incubation, fluorescence appears in the nucleus. Moreover, the nuclei shrink after the assemblies emerge in the nuclei. In addition, the nuclei also show nuclear blebbing (Stephens et al., “Chromatin Histone Modifications and Rigidity Affect Nuclear Morphology Independent of Lamins,” Mol. Biol. Cell 29(2):220-233 (2018), which is hereby incorporated by reference in its entirety). The shrinkage of nuclei and nuclear blebbing likely associate with iPSC death. To further examine the dynamics of EISA-formed peptide assemblies in iPSCs over different time, the increase of fluorescence in two cells over 2 hours was monitored; their nuclei, A and B, are shown in FIG. 10A. […] The mean fluorescent intensity in Nucleus A starts to increase at 28 minutes and levels off after 110 minutes. For Nucleus B, the mean fluorescent intensity keeps increasing from 38 minutes. The increases of the fluorescence in the nuclei and nucleoli are synchronous. […] The assemblies inside the nuclei or near nuclear membrane induce nuclear blebbing and shrinkage of nuclei, which likely contributes to the cell death.

Data set [2] in a line: Degradation in HS-5 cell lysate (LC-MS). The note with it: 200 μM, 2 h of incubation.
Where [3] appears, read: 400 μM, time-lapse CLSM, one representative cell.

Non-standard residues stand in square brackets, D forms with d. Residues, ends and D or L forms follow the SMILES beside them. *: point of attachment. pY = N[C@@H](Cc1ccc(OP(=O)(O)O)cc1)C(=O)O; NBD = O=[N+]([O-])c1ccc(*)c2nonc12; βAla = NCCC(=O)O

In data set [1] (200 μM, one-hour treatment by 0.1 U/mL ALP), `CC(C)C[C@H](NC(=O)CCNc1ccc([N+](=O)[O-])c2nonc12)C(=O)N[C@@H](CC(C)C)C(=O)N[C@@H](CC(C)C)C(=O)N[C@@H](CC(C)C)C(=O)N[C@@H](Cc1ccc(OP(=O)(O)O)cc1)C(=O)O` [compound 5, NBD-βA-LLLLpY] ({NBD-βAla}-LLLL[pY]-OH) returned a diameters of nanoparticles of 404±50 nm. Besides, the widths of nanoribbons in data set [1] (400 μM, ALP 0.5 U/mL, 37° C., 24 h) was 74±13 nm. Besides, the “diameter of short nanofibers” value in data set [1] (400 μM, PBS, before ALP) is reported as 9±2 nm. Also, the “cytotoxicity towards HS-5 cells” value in the data set with HS-5 cells is “slight cytotoxicity”. In the data set with iPSCs (200 μM), the “NBD fluorescence in iPSCs” value was “hardly any fluorescence in the cells”. For the same compound, the “NBD fluorescence in iPSCs with ALP inhibitor” value in the data set with iPSCs (400 μM plus DQB 5 μM, 2 hours) was “little fluorescence in cells”. Moreover, the “NBD fluorescence in iPSCs (location of peptide assemblies)” value in the data set on iPSCs (400 μM, 2 hours) was “strong NBD fluorescence in nuclei”. In addition, in the data set on iPSCs (setting [3]), the “incubation time at which fluorescence appears in the nucleus” value is given as “about 28 minutes”, the “incubation time at which fluorescence starts to grow in the cytoplasm” value worked out at 24 min and the “incubation time at which fluorescent puncta appear on the membrane” value came to 6 min. For the same compound, in the data set with iPSCs (400 μM, treatment time 1 hour), the “NBD fluorescence in iPSC nuclei” value is listed as “weaker fluorescence”. Also, the “stability of 5 in HS-5 lysate” value in data set [2] is “All of 5 disappears”.
